Where a name gives a salt, the structure may show the parent alone.
Biological target: T1, HCV polymerase (Hepatitis C virus genotype 1b, UniProt P26663)
T1 construct: a region encoding NS5B (J Virol 1991 March, 65(3), 1105-13, 544 amino acids after deletion of 47 amino acids on the C-terminal); 6xHis (C); made in house; host or cells: Escherichia coli
Assay: biochemical
Parameters: species or system HCV BK strain
How it was run: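 His-tagged NS5B (BK strain, 47-aa C-terminal deletion, E. coli-expressed) at 0.5 μg/ml copied 5 μg/ml run-off RNA bearing the HCV 3′ UTR with 2 μM UTP plus [3H]UTP, 50 μM ATP/GTP, in pH 7.5 Tris with 5 mM MgCl2, 25 °C, 90 min. TCA-precipitated RNA was counted and IC50 calculated.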

T1 sequence (P26663 2420-2963): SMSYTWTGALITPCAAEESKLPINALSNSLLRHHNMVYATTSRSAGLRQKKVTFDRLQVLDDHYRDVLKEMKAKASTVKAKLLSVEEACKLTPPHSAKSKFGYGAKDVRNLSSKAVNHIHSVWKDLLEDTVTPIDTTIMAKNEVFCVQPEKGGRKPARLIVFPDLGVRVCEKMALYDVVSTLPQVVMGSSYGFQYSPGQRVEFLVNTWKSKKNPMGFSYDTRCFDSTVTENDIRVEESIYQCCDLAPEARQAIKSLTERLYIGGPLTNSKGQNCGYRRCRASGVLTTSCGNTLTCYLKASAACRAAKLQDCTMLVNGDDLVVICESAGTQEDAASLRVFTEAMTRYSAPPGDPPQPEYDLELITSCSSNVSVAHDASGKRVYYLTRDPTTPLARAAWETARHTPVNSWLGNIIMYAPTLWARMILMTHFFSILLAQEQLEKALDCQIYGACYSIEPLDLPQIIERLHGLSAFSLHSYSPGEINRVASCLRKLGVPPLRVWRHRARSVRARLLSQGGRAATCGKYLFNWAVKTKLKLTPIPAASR

SMILES	IC50 [nM]
O=C(O)c1ccc2c(C3CCCCC3)c3n(c2c1)CCN(CCN1CCCC2CCCCC21)c1ccccc1-3 (stereo not drawn) [Example 1-144, 13-cyclohexyl-5-[2-(octahydroquinolin-1-yl)ethyl]-6,7-dihydro-5H-benzo[5,6][1,4]diazepino[7,1-a]indole-10-carboxylic acid dihydrochloride]	< 100
O=C(O)c1ccc2c(C3CCCCC3)c3n(c2c1)CCN(CCN1Cc2ccccc2C1)c1ccccc1-3 [Example 1-145, 13-cyclohexyl-5-[2-(1,3-dihydroisoindol-2-yl)ethyl]-6,7-dihydro-5H-benzo[5,6][1,4]diazepino[7,1-a]indole-10-carboxylic acid dihydrochloride]	< 100
O=C(O)c1ccc2c(C3CCCCC3)c3n(c2c1)CCN(CCN1CCC2CCCCC2C1)c1ccccc1-3 (stereo not drawn) [Example 1-146, 13-cyclohexyl-5-[2-(octahydroisoquinolin-2-yl)ethyl]-6,7-dihydro-5H-benzo[5,6][1,4]diazepino[7,1-a]indole-10-carboxylic acid dihydrochloride]	< 100
CN(C)CCCN1CCn2c(c(C3CCCCC3)c3ccc(C(=O)O)cc32)-c2ccccc21 [Example 1-148, 13-cyclohexyl-5-(3-dimethylaminopropyl)-6,7-dihydro-5H-benzo[5,6][1,4]diazepino[7,1-a]indole-10-carboxylic acid dihydrochloride]	< 100
O=C(O)c1ccc2c(C3CCCCC3)c3n(c2c1)CCN(CCN1CCCCC1)c1c(F)cccc1-3 [Example 1-149, 13-cyclohexyl-4-fluoro-5-[2-(piperidin-1-yl)ethyl]-6,7-dihydro-5H-benzo[5,6][1,4]diazepino[7,1-a]indole-10-carboxylic acid dihydrochloride]	< 100
CC(C)C1CCN(CCN2CCn3c(c(C4CCCCC4)c4ccc(C(=O)O)cc43)-c3ccccc32)CC1 [Example 1-150, 13-cyclohexyl-5-[2-(4-isopropylpiperidin-1-yl)ethyl]-6,7-dihydro-5H-benzo[5,6][1,4]diazepino[7,1-a]indole-10-carboxylic acid dihydrochloride]	< 100
COC1CCCN(CCN2CCn3c(c(C4CCCCC4)c4ccc(C(=O)O)cc43)-c3ccccc32)C1 (stereo not drawn) [Example 1-151, 13-cyclohexyl-5-[2-(3-methoxypiperidin-1-yl)ethyl]-6,7-dihydro-5H-benzo[5,6][1,4]diazepino[7,1-a]indole-10-carboxylic acid dihydrochloride]	< 100
CC(C)(C)OC(=O)N1CCCC(CN2CCn3c(c(C4CCCCC4)c4ccc(C(=O)O)cc43)-c3ccccc32)C1 (stereo not drawn) [Example 1-152, 5-(1-tert-butoxycarbonylpiperidin-3-ylmethyl)-13-cyclohexyl-6,7-dihydro-5H-benzo[5,6][1,4]diazepino[7,1-a]indole-10-carboxylic acid]	< 100
CCN1CCCC(CN2CCn3c(c(C4CCCCC4)c4ccc(C(=O)O)cc43)-c3ccccc32)C1 (stereo not drawn) [Example 1-153, 13-cyclohexyl-5-(1-ethylpiperidin-3-ylmethyl)-6,7-dihydro-5H-benzo[5,6][1,4]diazepino[7,1-a]indole-10-carboxylic acid dihydrochloride]	< 100
O=C(O)c1ccc2c(C3CCCCC3)c3n(c2c1)CCN(CCN1CCCCCCC1)c1ccccc1-3 [Example 1-154, 5-[2-(azocan-1-yl)ethyl]-13-cyclohexyl-6,7-dihydro-5H-benzo[5,6][1,4]diazepino[7,1-a]indole-10-carboxylic acid]	< 100
O=C(O)c1ccc2c(C3CCCCC3)c3n(c2c1)CCN(CCN1CCCCCCCC1)c1ccccc1-3 [Example 1-155, 5-[2-(azonan-1-yl)ethyl]-13-cyclohexyl-6,7-dihydro-5H-benzo[5,6][1,4]diazepino[7,1-a]indole-10-carboxylic acid]	< 100
CC1CCCCN1CCN1CCn2c(c(C3CCCCC3)c3ccc(C(=O)O)cc32)-c2ccccc21 (stereo not drawn) [Example 1-156, 13-cyclohexyl-5-[2-(2-methylpiperidin-1-yl)ethyl]-6,7-dihydro-5H-benzo[5,6][1,4]diazepino[7,1-a]indole-10-carboxylic acid]	< 100
O=C(O)c1ccc2c(C3CCCCC3)c3n(c2c1)CCN(CCC1CCN(C2CCCC2)CC1)c1ccccc1-3 [Example 1-157, 13-cyclohexyl-5-[2-(1-cyclopentylpiperidin-4-yl)ethyl]-6,7-dihydro-5H-benzo[5,6][1,4]diazepino[7,1-a]indole-10-carboxylic acid dihydrochloride]	< 100
O=C(O)c1ccc2c(C3CCCCC3)c3n(c2c1)CCN(CC(=O)N1CCC(C(F)(F)F)CC1)c1ccccc1-3 [Example 1-158, 13-cyclohexyl-5-[2-oxo-2-(4-trifluoromethylpiperidin-1-yl)ethyl]-6,7-dihydro-5H-benzo[5,6][1,4]diazepino[7,1-a]indole-10-carboxylic acid monohydrochloride]	< 100
O=C(O)c1ccc2c(C3CCCCC3)c3n(c2c1)CCN(CCN1CCCCC1)c1cc(C(F)(F)F)ccc1-3 [Example 1-159, 13-cyclohexyl-5-[2-(piperidin-1-yl)ethyl]-3-trifluoromethyl-6,7-dihydro-5H-benzo[5,6][1,4]diazepino[7,1-a]indole-10-carboxylic acid dihydrochloride]	< 100
CCN1CCN(CCN2CCn3c(c(C4CCCCC4)c4ccc(C(=O)O)cc43)-c3ccc(F)cc32)CC1 [Example 1-160, 13-cyclohexyl-5-[2-(4-ethylpiperazin-1-yl)ethyl]-3-fluoro-6,7-dihydro-5H-benzo[5,6][1,4]diazepino[7,1-a]indole-10-carboxylic acid trihydrochloride]	< 100
CC(C)(C)OC(=O)N1CCCCC1CCN1CCn2c(c(C3CCCCC3)c3ccc(C(=O)O)cc32)-c2ccccc21 (stereo not drawn) [Example 1-161, 5-[2-(1-tert-butoxycarbonylpiperidin-2-yl)ethyl]-13-cyclohexyl-6,7-dihydro-5H-benzo[5,6][1,4]diazepino[7,1-a]indole-10-carboxylic acid monohydrochloride]	< 100
CCN1CCN(C(=O)CN2CCn3c(c(C4CCCCC4)c4ccc(C(=O)O)cc43)-c3ccc(F)cc32)CC1 [Example 1-162, 13-cyclohexyl-5-[2-(4-ethylpiperazin-1-yl)-2-oxoethyl]-3-fluoro-6,7-dihydro-5H-benzo[5,6][1,4]diazepino[7,1-a]indole-10-carboxylic acid dihydrochloride]	< 100
O=C(O)c1ccc2c(C3CCCCC3)c3n(c2c1)CCN(CCc1ccccn1)c1ccccc1-3 [Example 1-163, 13-cyclohexyl-5-[2-(pyridin-2-yl)ethyl]-6,7-dihydro-5H-benzo[5,6][1,4]diazepino[7,1-a]indole-10-carboxylic acid dihydrochloride]	< 100
COCCN1CCn2c(c(C3CCCCC3)c3ccc(C(=O)O)cc32)-c2ccccc21 [Example 1-164, 13-cyclohexyl-5-(2-methoxyethyl)-6,7-dihydro-5H-benzo[5,6][1,4]diazepino[7,1-a]indole-10-carboxylic acid monohydrochloride]	< 100
O=C(O)c1ccc2c(C3CCCCC3)c3n(c2c1)CCN(CCC1CCCNC1)c1ccccc1-3 (stereo not drawn) [Example 1-165, 13-cyclohexyl-5-[2-(piperidin-3-yl)ethyl]-6,7-dihydro-5H-benzo[5,6][1,4]diazepino[7,1-a]indole-10-carboxylic acid dihydrochloride]	< 100

From US20070049593A1 (priority 2004, published 2007)
